Measured values as given in patent US3931199A, “Benzopyrano and benzothiopyrano [2,3-6] pyridines” (Yoshitomi Pharmaceutical Industries, Ltd., priority 1973, dated 1976).
Where two headings read alike, the source gives them in different places.

System: Passive Cutaneous Anaphylaxis
Assay: Passive Cutaneous Anaphylaxis Test
Type: in vivo, Donryu-strain male rats
Settings: Rattus norvegicus, dose required for 50% inhibition, rats sensitized with reagin serum, egg albumin challenge after 48 hours
Description: A test solution containing a test compound was administered orally 1 hour before, or intraperitoneally 30 minutes before challenge. The animals were killed 30 minutes after challenge, the skin reflected, and the responses measured and scored 0 for diameter of wheal less than 5 mm, 1 for 5-10 mm,[…] 3 for 15-20 mm and 4 for more than 20 mm. The percentage inhibition was calculated using the formula: [formula]

[1] = ip, 0.5 h, i.p., 30 minutes before challenge, read-out: ED50 i.p.
[2] = po, 1 hour before challenge, read-out: ED50 p.o.

Structure (SMILES): CC(=O)c1ccc2oc3ncccc3c(=O)c2c1 [A, 7-acetyl-5-oxo-5H-[1]benzopyrano[2,3-b]pyridine]
- ED50 [1]: 1 mg/kg
- ED50 [2]: 10 mg/kg

Structure (SMILES): CC(C)C(=O)c1ccc2oc3ncccc3c(=O)c2c1 [B, 7isobutyryl-5-oxo-5H-[1]benzopyrano[2,3-b]pyridine]
- ED50 [1]: 1 mg/kg
- ED50 [2]: 25 to 50 mg/kg

Structure (SMILES): O=C(O)c1ccc2oc3ncccc3c(=O)c2c1 [C, 5-oxo-5H-[1]benzopyrano[2,3-b]pyridine-7-carboxylic acid]
- ED50 [1]: 2 mg/kg
- ED50 [2]: 25 mg/kg

Structure (SMILES): O=C([O-])c1ccc2oc3nc(-c4ccccc4)ccc3c(=O)c2c1.[Na+] [D, sodium 2-phenyl-5-oxo-5H-[1]benzopyrano[2,3-b]pyridine-7-carboxylate]
- ED50 [1]: 1 mg/kg
- ED50 [2]: 40 mg/kg
